Test results reported in US20240342330A1, “METHOD FOR THE PREPARATION OF SURFACES, PARTICULARLY OF CARDIAC PROSTHESIS” (BIOCOMPATIBILITY INNOVATION S.R.L., priority 2021, published 2024).

Columns and labels:
Test in all cases: Bactericidal activity suspension assay
Format in all cases: cell-based
Details in all cases: 24 hours incubation
[1] = tested on: Pseudomonas aeruginosa ATCC 9027
[2] = tested on: Salmonella enterica typhimurium ATCC 14028
[3] = tested on: Enterococcus faecalis ATCC 29212
[4] = tested on: Listeria monocytogenes ATCC 19111
[5] = tested on: Staphylococcus aureus ATCC 6538
[6] = tested on: Streptococcus viridans ATCC 6249
[7] = tested on: Candida albicans ATCC 10231
[8] = tested on: Aspergillus brasiliensis ATCC 16404
[9] = tested on: Mycobacterium chelonae ATCC 35752

CCO [ETHANOL, ethanol]
BACTERICIDAL ACTIVITY % [1]: 99.99%
BACTERICIDAL ACTIVITY % [2]: 90%
BACTERICIDAL ACTIVITY % [3]: 0%
BACTERICIDAL ACTIVITY % [4]: 0%
BACTERICIDAL ACTIVITY % [5]: 99%
BACTERICIDAL ACTIVITY % [6]: 90%
BACTERICIDAL ACTIVITY % [7]: 99.9%
BACTERICIDAL ACTIVITY % [8]: 90%
BACTERICIDAL ACTIVITY % [9]: 99%
